Measurements reported in PubChem BioAssay (NCI).
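Following 48 hours of exposure in 96-well plates, responses at five concentrations were used to interpolate endpoints linearly. GI50 is the concentration that inhibits growth by half. Definition used: TGI = concentration required for complete inhibition of growth.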

What was measured:
Assay in all cases: NCI anticancer screen, dose series, 48 h
[1] = tested on: NCI/ADR-RES ovarian
[2] = tested on: SK-MEL-2 melanoma
[3] = tested on: 786-0 renal
[4] = tested on: HCT-15 colon
[5] = tested on: HL-60(TB) leukemia
[6] = tested on: SK-MEL-5 melanoma
[7] = tested on: SF-295 CNS
[8] = tested on: SW-620 colon
[9] = tested on: HT29 colon
[10] = tested on: CAKI-1 renal
[11] = tested on: U251 CNS
[12] = tested on: ACHN renal
[13] = tested on: SK-MEL-28 melanoma
[14] = tested on: T-47D breast
[15] = tested on: RPMI-8226 leukemia
[16] = tested on: DU-145 prostate
[17] = tested on: SF-539 CNS
[18] = tested on: HCT-116 colon
[19] = tested on: SF-268 CNS
[20] = tested on: MCF7 breast
[21] = tested on: SNB-19 CNS
[22] = tested on: NCI-H460 lung
[23] = tested on: OVCAR-5 ovarian
[24] = tested on: HS 578T breast
[25] = tested on: UACC-257 melanoma
[26] = tested on: NCI-H522 lung
[27] = tested on: BT-549 breast
[28] = tested on: HOP-62 NSCLC
[29] = tested on: M14 melanoma

Compound COc1ccc(/C=N/C2=C(C#N)C(c3ccccc3)c3c(ccc4ccccc34)O2)cc1 (stereo not drawn) has a GI50 [1] of 0.916 µM, a TGI [1] of over 100 µM and a GI50 [2] of 3.97 µM. It also gave a TGI [2] of over 100 µM, a GI50 [3] of 4.48 µM and a TGI [3] of 38.7 µM. The GI50 [4] was 0.564 µM, the TGI [4] was 29 µM and the GI50 [5] was 0.649 µM. For the same compound, the TGI [5] was 6 µM, the GI50 [6] was 1.74 µM and the TGI [6] was 18.2 µM. It also gave a GI50 [7] of 0.482 µM, a TGI [7] of 11.8 µM and a GI50 [8] of 0.732 µM. For the same compound, the TGI [8] was over 100 µM, the GI50 [9] was 0.702 µM and the TGI [9] was 15.3 µM. It also gave a GI50 [10] of 0.457 µM, a TGI [10] of 20.4 µM and a GI50 [11] of 1.87 µM. It also gave a TGI [11] of 21.1 µM, a GI50 [12] of 4.09 µM and a TGI [12] of 54.4 µM. The GI50 [13] was 7.14 µM, the TGI [13] was 59.8 µM and the GI50 [14] was 2.41 µM. For the same compound, the TGI [14] was over 100 µM, the GI50 [15] was 2.66 µM and the TGI [15] was 35.3 µM. The GI50 [16] was 3.26 µM, the TGI [16] was 18.6 µM and the GI50 [17] was 1.65 µM. For the same compound, the TGI [17] was 10.4 µM, the GI50 [18] was 0.516 µM and the TGI [18] was 19.2 µM. The GI50 [19] was 2.85 µM, the TGI [19] was 65.3 µM and the GI50 [20] was 0.586 µM. For the same compound, the TGI [20] was 24.5 µM, the GI50 [21] was 2.06 µM and the TGI [21] was 56.2 µM. The GI50 [22] was 1.37 µM, the TGI [22] was 47.1 µM and the GI50 [23] was 4.53 µM. The TGI [23] was 37.7 µM, the GI50 [24] was 2.15 µM and the TGI [24] was 23.8 µM. It also gave a GI50 [25] of 23.4 µM, a TGI [25] of over 100 µM and a GI50 [26] of 0.388 µM. It also gave a TGI [26] of 37.6 µM, a GI50 [27] of 1.17 µM and a TGI [27] of 20.9 µM. The GI50 [28] was 1.77 µM, the TGI [28] was 60.1 µM and the GI50 [29] was 0.459 µM. It also gave a TGI [29] of 9.66 µM.
